Four compounds from patent US20100279962A1, “MONOSEBACATE OF PYRAZOLE DERIVATIVE” (KISSEI PHARMACEUTICAL CO., LTD., priority 2007, published 2010) can be followed below.

Data set [1] has as its system Male Wistar rats. In words: Oral glucose tolerance test, combination effect with sulfonylureas. It is filed as in vivo, rat. The settings on record: for Plasma glucose concentration (mg/dL) Just before administration: fasted rats, baseline before oral dosing; for Plasma glucose concentration (mg/dL) Just before administration / Plasma glucose concentration (mg/dL) 1 hr after administration: mean ± standard error; for Plasma glucose concentration at 1 hr compared with the Control group (in words) / Plasma glucose concentration (mg/dL) 1 hr after administration: oral, monosebacate 0.03 mg/kg as free form, gliclazide 0.3 mg/kg, oral glucose load. As for the experimental part: (§1) Male Wistar rats (Charles River Japan, Inc.) at 9 weeks of age, fasted about 16 hours (each group has 6 animals), were administrated orally in a volume of 2.5 mL/kg with distilled water and 0.1% methylcellulose solution in the Control group, with the monosebacate (0.03 mg/kg as the above compound (B) (free form)) dissolved in distilled water (hereinafter referred to as the “monosebacate solution”) and 0.1% methylcellulose solution in the Monosebacate alone group, with gliclazide (0.3 mg/kg as gliclazide) dissolved in 0.1% methylcellulose solution (hereinafter referred to as the “gliclazide solution”) and distilled water in the Gliclazide alone group and with the monosebacate solution and the gliclazide solution (0.03 mg/kg as the compound (B) and 0.3 mg/kg as gliclazide) in the Gliclazide combination group, respectively. Subsequently, 0.4 g/mL of glucose solution (5 mL/kg) was loaded orally. The blood was collected from tail vein before and 1 hr after administration of test substance, and the plasma glucose concentrations were measured using Glucose C-II test WAKO (Wako Pure Chemical Industries, Ltd.). The numerical values in the table represent mean value±standard error.

The test system of data set [2] is Male Wistar rats. Kind of data set: Oral glucose tolerance test, combination effect with glinides. Format: in vivo, rat. The note with it: for Plasma glucose concentration (mg/dL) Just before administration: fasted rats, baseline before oral dosing; for Plasma glucose concentration (mg/dL) Just before administration / Plasma glucose concentration (mg/dL) 1 hr after administration: mean ± standard error; for Plasma glucose concentration at 1 hr compared with the Control group (in words) / Plasma glucose concentration (mg/dL) 1 hr after administration: oral, monosebacate 0.03 mg/kg as free form, mitiglinide calcium hydrate 0.3 mg/kg, oral glucose load. The method, then: as §1
Instead of gliclazide in the Gliclazide alone group and the Gliclazide combination group, mitiglinide calcium hydrate (JAN) (0.3 mg/kg as mitiglinide calcium hydrate) was used (hereinafter referred to as the “Mitiglinide alone group” and the “Mitiglinide combination group”, respectively), and the plasma glucose concentrations were measured in the same way as the above method (1). The numerical values in the table represent mean value±standard error.

Data set [3] in a line: Storage stability test (purity by HPLC, deliquescence). It is filed as physicochemical. The settings on record: for Purity (%) Initial / Purity (%) After 2 months: HPLC; for Storage stability (in words): 2 months. The method, then:
The crystals of the monosebacate in Example 1 and amorphous 3-(3-{4-[3-(β-D-glucopyranosyloxy)-5-isopropyl-1H-pyrazol-4-ylmethyl]-3-methylphenoxy} propylamino)-2,2-dimethylpropionamide (free form) as Comparative Example were stored under condition of 40° C./75% relative humidity or 60° C. in open vessels, existence or nonexistence of the deliquescence and the storage stability for 2 months were examined. […] Analytical conditions of HPLC are as follows.
Detector: ultraviolet-visible absorption spectrophotometer
Column: LUNA C18(2) (produced by Phenomenex), 5 μm, 4.6×250 mm, particle diameter 100×10^−10 m
Column Temperature: a constant temperature of around 25° C.
Sample concentration: 1 mg/mL
Mobile phase A: 10 mM dipotassium hydrogenphosphate aqueous solution adjusted to pH 7.8 with phosphoric acid
Mobile phase B: Acetonitrile
0-30 min: Mobile phase A/Mobile phase B=78/22, 30-50 min: Mobile phase A/Mobile phase B=78/22→30/70, 50-60 min: Mobile phase A/Mobile phase B=30/70
Range of area measurement: for 50 minutes from the start, except for the area of the peak of the blank solution

Setting [4] is: 40° C./75% relative humidity storage test.
[5] abbreviates: 60° C. in open vessels storage test.
Setting [6] is: stored at 40° C./75% relative humidity for 2 months.
Where [7] appears, read: stored at 60° C. in open vessels for 2 months.

As to `Cc1ccc(S(=O)(=O)NC(=O)NN2CC3CCCC3C2)cc1` (stereo not drawn) [Gliclazide, gliclazide], in data set [1], the “Plasma glucose concentration (mg/dL) Just before administration” value was found to be 80.7 ± 6.7 mg/dL, the “Plasma glucose concentration at 1 hr compared with the Control group (in words)” value is reported as “lower plasma glucose concentrations” and the “Plasma glucose concentration (mg/dL) 1 hr after administration” value was found to be 136.5 ± 6.7 mg/dL.

“Bis[3-(3-{4-[3-(β-D-glucopyranosyloxy)-5-isopropyl-1H-pyrazol-4-ylmethyl]-3-methylphenoxy}propylamino)-2,2-dimethylpropionamide] monosebacate [Example 1]”: the “Plasma glucose concentration (mg/dL) Just before administration” value in data set [1] was 81.6 ± 3.1 mg/dL; in data set [2], 83.8 ± 1.8 mg/dL. For the same compound, the “Plasma glucose concentration at 1 hr compared with the Control group (in words)” value in data set [1] and in data set [2] was “lower plasma glucose concentrations” throughout. Also, the entries for the “Plasma glucose concentration (mg/dL) 1 hr after administration” value in data set [1] and in data set [2] were 127.6 ± 3.8 mg/dL and 141.3 ± 5.6 mg/dL, respectively. Further, the Deliquescence result in data set [3] (40° C./75% relative humidity) is given as “Nil”. The “Purity (%) Initial” value in data set [3] (setting [4]) and in data set [3] (setting [5]) was 99.6% each time. The “Storage stability (in words)” value was “excellent storage stability” in data set [3] (40° C./75% relative humidity) and “almost no decrease in the purity” in data set [3] (60° C. in open vessels). The “Purity (%) After 2 months” value is given as 99.5% in data set [3] (setting [6]) and 99.2% in data set [3] (setting [7]).

As for `Cc1cc(OCCCNCC(C)(C)C(N)=O)ccc1Cc1c(O[C@@H]2O[C@H](CO)[C@@H](O)[C@H](O)[C@H]2O)n[nH]c1C(C)C` [Comparative Example, 3-(3-{4-[3-(β-D-glucopyranosyloxy)-5-isopropyl-1H-pyrazol-4-ylmethyl]-3-methylphenoxy}propylamino)-2,2-dimethylpropionamide], the Deliquescence entry in data set [3] (40° C./75% relative humidity) was “Yes”; in data set [3] (40° C./75% relative humidity, listed as free form), “deliquescence from the initial of the experiment”. Besides, the “Purity (%) Initial” value in data set [3] (setting [4]) and in data set [3] (setting [5]) was 98.7% each time. Besides, the “Storage stability (in words)” value was “decrease in the purity” in data set [3] (40° C./75% relative humidity) and “remarkable decrease in the purity due to the decomposition” in data set [3] (60° C. in open vessels). Further, the “Purity (%) After 2 months” value in data set [3] (setting [6]) was 97.0%; in data set [3] (setting [7]) it was 95.3%.

For `O=C(O)[C@H](CC(=O)N1C[C@H]2CCCC[C@H]2C1)Cc1ccccc1` [Mitiglinide, mitiglinide calcium hydrate], in data set [2], the “Plasma glucose concentration (mg/dL) Just before administration” value stood at 85.8 ± 1.7 mg/dL, the “Plasma glucose concentration at 1 hr compared with the Control group (in words)” value is on record as “lower plasma glucose concentrations” and the “Plasma glucose concentration (mg/dL) 1 hr after administration” value turned out to be 119.1 ± 5.8 mg/dL.
